This experiment has as its target human α-thrombin (Homo sapiens, UniProt P00734). Put plainly: Kinetics of substrate hydrolysis by proteolytic enzyme (initial rates, centrifugal analyzer, Hanes plot). It counts as biochemical. The note with it: substrate for human α-thrombin.

Square brackets hold non-standard residues; d marks the D form. Peptide text beside a SMILES is read from it. * marks the point of attachment. SBn = c1ccc(CS*)cc1

Drawing on US4434096A, “Substrates for the quantitative determination of proteolytic enzymes” (E. I. Du Pont de Nemours and Company, priority 1981, dated 1984), this text covers Km and kcat for 2 compounds.

The term Km denotes the substrate concentration at which the rate is half of its maximum. For orientation: kcat means the maximal rate divided by the concentration of active sites.

Excerpt: The Michaelis-Menten constant, Km, is a kinetic parameter related to the affinity of a substrate for an enzyme under a given set of reaction conditions. The Km is defined as the substrate concentration at which the initial reaction velocity is one-half of the maximal initial reaction velocity. The maximal velocity (vmax), another important kinetic parameter, when divided by the enzyme concentration, yields kcat. The determination of Km and kcat for a given substrate with various enzymes allows the determination of the selectivity of that substrate for a given enzyme.
Km and vmax values can be determined by utilizing a centrifugal analyzer (GEMSAEC system, available from Electro-Nucleonics, Inc., Fairfield, N.J.) to measure the initial rates of substrate hydrolysis by the proteolytic enzyme. Five substrate concentrations ([S]), ranging from about one-fifth to five times the expected Km, can be used for triplicate determinations in this centrifugal analyzer. The initial reaction rates (v) can then be plotted in a Hanes plot, [S]/v versus [S], for a determination of Km (the absolute value of the X-intercept) and vmax (the reciprocal of the slope) through linear regression analysis. Alternative procedures are available for the calculation of Km and vmax.
For a given enzyme, lower Km values for a series of substrates indicate higher affinity of the substrate to the enzyme. This allows the utilization of lesser amounts of substrate while still operating at vmax.

In the case of `CC(C)C[C@H](NC(=O)[C@H](N)C(C)C)C(=O)N[C@@H](CCCCN)C(=O)SCc1ccccc1` [H--D-Val--Leu--Lys--S--Bzl] (H-[dV]-Leu-Lys-SBn), the Michaelis-Menten constant (Km) is 16 µM and the kcat stood at 94 s⁻¹.

Regarding `NCCCC[C@H](NC(=O)OCc1ccccc1)C(=O)SCc1ccccc1` [Z--Lys--S--Bzl], the Km was 38 µM and the kcat came out at 84 s⁻¹.
